Measured values published in patent US7163961B1, “Drugs, foods and oral compositions containing stilbene-type compounds” (Sunstar Inc., priority 1999, dated 2007).

What was measured:
osteoblastic cells = settings: cultured osteoblastic cell strain; Biochem. Biophys. Res. Commun. 253, 859–863 (1998); cited from earlier work
[1] = test system: ovariectomized female stroke-prone spontaneously hypertensive rats (SHRSP/izm); assay: Preventive action on decrease in bone weight in ovariectomized rats (climacteric conditions); assay type: in vivo, rat; settings: left thigh bone, resveratrol in feed about 20 mg/kg per day, 8 weeks, mean ± SD, n = 5
Protocol: Rats subjected to climacteric conditions were studied to estimate the effect of the composition of the invention in preventing a decrease in bone weight. Specifically, 18-week-old female stroke-prone spontaneously hypertensive rats (SHRSP/izm) were ovariectomized and subjected to climacteric conditions. Then, the rats were grouped into a resveratrol group to which resveratrol was administered and a control group. Also provided was a sham group of rats which received a sham operation, that is, a laparotomy without ovary removal. The rats were fed ad libitum. The control group and sham group were fed with “Powdery Mixed Feed SP” (manufactured by Funahashi Farm), and the resveratrol group was fed with the same feed with resveratrol added thereto. The amount of added resveratrol administered was adjusted to about 20 mg/kg per day. Each group had 5 rats that were bred for 8 weeks. After the breeding period, the rats were slaughtered for dissection. The left thigh bone was removed from each group's rats. The thigh bones were tested for their bone density and measured for their breaking load and breaking energy values using “EZ-test” (manufactured by Shimadzu Corporation), whereby their bone strength was evaluated.

[2] = test system: ovariectomized female stroke-prone spontaneously hypertensive rats (SHRSP/izm); assay: Preventive action on hypertension, cardiac hypertrophy and cerebral apoplexy in ovariectomized rats; assay type: in vivo, rat; settings: feed with 1.5 g/kg of resveratrol added, 8 weeks
Source text: Rats subjected to climacteric conditions were studied to estimate the effect of the composition of the invention in preventing a rise in blood pressure, cardiac hypertrophy and cerebral apoplexy. Specifically, 18-week-old female stroke-prone spontaneously hypertensive rats (SHRSP/izm) were ovariectomized and subjected to climacteric conditions. Then, the rats were grouped into a resveratrol group and a control group. Also provided a sham group of rats which received a sham operation, that is, a laparotomy without ovary removal. The rats were fed ad libitum. The control group and sham group were fed with “Powdery Mixed Feed SP” (manufactured by Funahashi Farm), and the resveratrol group was fed with the same mixed feed with 1.5 g/kg of resveratrol added. Five rats in each group were bred for 8 weeks. The blood pressure of the rats was measured every week without anesthesia by means of a rat caudal artery sphygmomanometer. After the breeding period, the rats were slaughtered for dissection.

[3] = test system: male stroke-prone spontaneously hypertensive rats (SHRSP/izm); assay: Preventive action on hypertension and cardiac hypertrophy in male rats; assay type: in vivo, rat; settings: 8 weeks
Protocol: The ability of the composition of the invention to prevent a rise in blood pressure and cardiac hypertrophy was researched using male rats. Firstly, 5- to 6-week-old male stroke-prone spontaneously hypertensive rats (SHRSP/izm) were grouped into a resveratrol group and a control group. The rats were fed ad libitum with “Powdery Mixed Feed SP” (manufacture by Funahashi Farm). The resveratrol group was administered resveratrol in an amount of 5 mg/kg per day. The administration was conducted by the intended clinical route, i.e., orally. The rats were force-fed orally once a day with a Teflon gastric tube. The dose was adjusted to 1 ml per 100 g of the body weight using a water for injection listed in The Japanese Pharmacopoeia, calculated according to the measured body weight of the individual rats. The control group was given the same amount of the water for injection listed in the Japanese Pharmacopoeia only. Each group had 5 rats that were bred for 8 weeks. The blood pressure of the rats was measured every 2 weeks without anesthesia by means of a rat caudal artery sphygmomanometer. After the breeding period, the rats were slaughtered for dissection and the ratio of the weight of the heart to the total body weight of the rats was measured.

Oc1ccc(C=Cc2cc(O)cc(O)c2)cc1 [Resveratrol, 3,5,4′-stilbenetriol]
Activity of alkaline phosphatase (osteoblastic cells): accelerates the activity of alkaline phosphatase
Activity of prolyl hydroxylase (osteoblastic cells): enhances the activity of prolyl hydroxylase
Proliferation of osteoblastic cells (osteoblastic cells): accelerates the proliferation of osteoblastic cells
Breaking energy ([1]; EZ-test): 0.0523 ± 0.0073 J
Breaking load ([1]; EZ-test): 99.46 ± 9.57 N
Bone density [1]: 1.479 ± 0.281 g/mL
Blood pressure compared with sham group [2]: about the same as that of the sham group
Cerebral infarction in brain tissue ([2]; 5 rats, control group 4 rats out of 5): not found in any rats
Inhibition of rise in blood pressure (FIG. 1) ([2]; caudal artery sphygmomanometer, weekly, without anesthesia): significantly higher action to inhibit a rise in the blood pressure than the control group
Brain weight per body weight ([2]; mean ± SD, n = 5): 0.803 ± 0.02%
Heart weight per body weight ([2]; mean ± SD, n = 5): 0.424 ± 0.023%
Heart weight per body weight ([3]; 5 mg/kg per day orally by gastric tube, mean ± SD, n = 5): 0.557 ± 0.024%
Inhibition of rise in blood pressure (FIG. 2) ([3]; 5 mg/kg per day orally, caudal artery sphygmomanometer, every 2 weeks): significantly higher action to inhibit a rise in the blood pressure
